Measurements: publication PMC6384574, “Colistin Use in Patients with Chronic Kidney Disease: Are We Underdosing Patients?” (Molecules, 2019)
Positions of bridges follow the written chain, without caps; N, C: chain ends. Non-standard residues stand in square brackets, D forms with d. Residues, ends and D or L forms follow the SMILES beside them. *: point of attachment. X1 = CC[C@H](C)CCCCC(=O)*; Dab = NCC[C@H](N)C(=O)O

Assays:
[1] = Colistin plasma concentration at steady state (Css,avg) by HPLC in CMS-treated patients with CKD; format: in vivo, human
Experimental: We conducted a prospective observational study in a cohort of patients with CKD and infections caused by extensively drug-resistant P. aeruginosa treated with intravenous CMS for at least 48 h. The study was carried out at Hospital del Mar, a tertiary care university hospital in Barcelona (Spain), from January 2010 to August 2018. The study was approved by the local ethics committee (Comité Ètic d’Investigació Clínica del Parc de Salut Mar. Approval number 2011/4501/I). Exclusion criteria were age <18 years, pregnancy, and breast-feeding during the study period. A pharmacy-generated alarm system was used to identify patients under CMS treatment. […]
The dosage regimen and dose adjustments were determined by the treating physician. […]
Blood samples were obtained just before the next dose on day 3–4 of the treatment. […] Concentrations of CMS and formed colistin in plasma were measured using a validated high-performance liquid chromatography (HPLC) method. The limit of quantification of the HPLC methods for colistin and CMS in plasma were 0.20 and 0.50 mg/L, respectively. As the plasma concentration-time profiles of formed colistin are almost flat, measured colistin concentrations were regarded as Css,avg. The percentage of patients achieving the therapeutic target defined as a Css,avg of 2 mg/L was also analyzed. […] We calculated the expected Css based on the formula of Nation et al..

[2] = cited from earlier work
Source text: Colistin use has reemerged in recent years for the treatment of multidrug-resistant Gram-negative infections, which has prompted the performance of a large number of clinical and PK studies of its use in the last decade. However, there is still little pharmacological information in patients at high risk of under- or overdosing, such as those with CKD. […] CMS, the pro-drug, is renally eliminated by glomerular filtration and active tubular secretion. Previ ... || Recent toxicodynamic studies performed in the general population indicate that the risk of nephrotoxicity in patients receiving CMS increases with plasma colistin concentration exceeding 2.5 mg/L [13, 15]. This point, together with the lack of information on the minimum inhibitory concentrations (MIC) at the beginning of CMS treatment, have led to consideration of an average Css,avg of 2 mg/L as a target when initiating therapy. The median Css,avg in this study was 0.9 mg/L, which is far below the above-mentioned recommended 2 mg/L [11] but is also below those reported in previous ... || Blood samples were obtained just before the next dose on day 3–4 of the treatment. […] Concentrations of CMS and formed colistin in plasma were measured using a validated high-performance liquid chromatography (HPLC) method. The limit of quantification of the HPLC methods for colistin and CMS in plasma were 0.20 and 0.50 mg/L, respectively. As the plasma concentration-time profiles of formed colistin are almost flat, measured colistin concentrations were regarded as Cs ...

[3] = Worsened renal function (nephrotoxicity) at end of treatment, RIFLE criteria; conditions: multivariate logistic regression
Experimental: (§2) Patient data included demographic information, SOFA score [31], Charlson comorbidity index [32], CMS treatment (indication, daily and total cumulative dose measured in millions of IU and treatment duration). GFR at baseline and at EOT was calculated using the abbreviated Modification of Diet in Renal Disease equation (MDRD-4) [33]. WRF was defined as a decrease in GFR ≥25% and was classified according to the Risk, Injury, Failure, Loss of kidney function, and End-stage kidney disease (RIFLE) criteria [34]. Patients with WRF were followed up until GFR recovery or until hospital discharge. Information was collected on the concomitant use of other potential nephrotoxic drugs such as aminoglycosides, vancomycin, angiotensin II receptor blockers, angiotensin-converting enzyme (ACE) inhibitors, loop diuretics, intravenous dye, amphotericin B and non-steroidal anti-inflammatory drugs (NSAIDs), as well as the need for vasopressor drugs or discontinuation of CMS due to nephrotoxicity. Combination therapy with other antibiotics with potential activity or synergy with colistin was assessed.
(§3) Dichotomous data were compared using a χ^2 or Fisher’s exact test. Normally distributed continuous data are expressed as means and standard deviations (SD), and were compared using the t-test. Otherwise, values are presented as means with interquartile range (IQR) and were compared using the Mann-Whitney U-test. The baseline and clinical characteristics of patients receiving different CMS doses were compared using the ANOVA or Kruskal-Wallis test. Multivariate analysis of risk factors for colistin-associated nephrotoxicity was conducted using logistic regression. Univariate analyses were performed separately for each of the risk factor variables to ascertain the odds ratio (OR) and 95% confidence interval (CI). All clinically important covariates and those with p < 0.3 in the univariate analyses were included in the multivariate analysis.

[4] = system: extensively drug-resistant Pseudomonas aeruginosa; test: Clinical cure / clinical failure in CKD patients treated with intravenous CMS; format: in vivo
Experimental: We conducted a prospective observational study in a cohort of patients with CKD and infections caused by extensively drug-resistant P. aeruginosa treated with intravenous CMS for at least 48 h. The study was carried out at Hospital del Mar, a tertiary care university hospital in Barcelona (Spain), from January 2010 to August 2018. The study was approved by the local ethics committee (Comité Ètic d’Investigació Clínica del Parc de Salut Mar. Approval number 2011/4501/I). Exclusion criteria were age <18 years, pregnancy, and breast-feeding during the study period. A pharmacy-generated alarm system was used to identify patients under CMS treatment. The study investigators performed the assessment from the first day of the treatment and informed consent was obtained from all participants or their legal representatives.
(§1) CKD was defined as kidney damage or GFR <60 mL/min/1.73 m^2 for 3 months or more, irrespective of cause. Infections were defined according to the Centers for Disease Control and Prevention. Clinical failure was defined as a lack of improvement in patients or in at least one of the initial symptoms, worsening or death. Clinical cure was defined as either the absence of symptoms or as a consistent improvement in the signs and symptoms of the infection. Thirty-day all-cause mortality was considered as death from any cause during the 30 days following EOT. Combined antibiotic treatment consisted of CMS plus meropenem or CMS plus amikacin.
The dosage regimen and dose adjustments were determined by the treating physician. Since this study was performed over more than 8 years, colistin daily doses varied during this time. From 2010 to 2014, dose adjustments were made according to the package insert’s recommended dosing as follows: GFR ≥76 mL/min/1.73 m^2, 4–6 million IU daily in three doses; GFR 40–75 mL/min/1.73 m^2, 2–3 million IU daily in two doses; GFR 25–40 mL/min/1.73 m^2, 1.5–2 million IU daily divided in one or two doses and; GFR <25 mL/min/1.73 m^2, 0.6–1 million IU daily every 36 h. In 2014, a new protocol based on our previous experience was implemented in our center and CMS was adjusted as follows: GFR ≥90 mL/min/1.73 m^2, 9 million IU daily in three doses; GFR 50–89 mL/min/1.73 m^2, 3 million IU every 12 h, GFR 10–49 mL/min/1.73 m^2, 3 million IU per day; GFR ≤10 mL/min/1.73 m^2, 2 million IU/day. However, the final dose was chosen by the treating physician. CMS (colistimethate formulation for intravenous use, GES Genéricos Españoles®, Las Rozas, Spain was diluted in 100 mL of physiological saline before intravenous administration over 30 min. Each vial contained 1 million IU of CMS (equivalent to 80 mg CMS).

[5] = 30-day all-cause mortality in CMS-treated CKD patients; format: in vivo, human
Experimental: as §1

[6] = in vivo
Experimental: as §2, §3

[7] = human, in vivo, iv
[8] = human, in vivo; cited from earlier work
Experimental: Recent toxicodynamic studies performed in the general population indicate that the risk of nephrotoxicity in patients receiving CMS increases with plasma colistin concentration exceeding 2.5 mg/L [13, 15]. This point, together with the lack of information on the minimum inhibitory concentrations (MIC) at the beginning of CMS treatment, have led to consideration of an average Css,avg of 2 mg/L as a target when initiating therapy. […] Rates of nephrotoxicity in patients treated with CMS range from 20% to 60% according to recent studies using standardized criteria to evaluate nephrotoxicity. Even though WRF was reversible in more than 50% of patients, the diagnosis and management of this complication during CMS treatment is a challenge in daily clinical practice, since nephrotoxicity is potentially related to worse clinical outcomes. In two previous studies by our group, the pre ...

[9] = Garonzik et al. pharmacokinetic study, ref [8]
[10] = diagnosis SSTI (skin and soft tissue infection)
[11] = diagnosis UTI (urinary tract infection)

CC[C@H](C)CCCCC(=O)N[C@@H](CCN)C(=O)N[C@H](C(=O)N[C@@H](CCN)C(=O)N[C@H]1CCNC(=O)[C@H]([C@@H](C)O)NC(=O)[C@H](CCN)NC(=O)[C@H](CCN)NC(=O)[C@H](CC(C)C)NC(=O)[C@@H](CC(C)C)NC(=O)[C@H](CCN)NC1=O)[C@@H](C)O [colistin] (X1-[Dab]T[Dab][Dab][Dab][dL]L[Dab][Dab]T; lactam 4-C)
Css,avg (colistin plasma concentration at steady-state), median (interquartile range) ([1]; all CKD patients n = 59, iv CMS, median daily dose 3 million IU, blood just before next dose on day 3–4, plasma, HPLC): 900 ng/mL | Css,avg ([1]; patients with clinical cure (n = 43), unit printed in Table 1 only): 800 ng/mL | Colistin Css,avg, median [2, 9]: 2360 ng/mL | Colistin Css,avg, range [2, 9]: 480 to 9380 ng/mL | Colistin plasma concentration in previous studies in the general population ([2]; IQR 0.11–5.99, ref [7],[13]): 1.06 | Half-life ([2]; assumed for steady state on day 3–4, ref [10]): approximately 14 h | OR of Css as independent risk factor for colistin-associated nephrotoxicity at the end of treatment ([3]; 95% CI 1.02–10.1, p = 0.047): 3.21

colistimethate sodium [CMS]
Clinical cure, patients ([4]; 43 of 59 CKD patients, iv CMS, XDR P. aeruginosa infections): 72.9% | Patients with clinical cure [4, 10]: 3 (60) n (%) | Patients with clinical failure [4, 10]: 2 (40) n (%) | Patients with clinical cure [4, 11]: 15 (93.6) n (%) | Patients with clinical failure [4, 11]: 1 (6.25) n (%) | Patients with clinical cure ([4]; diagnosis bacteremia): 3 (100) n (%) | Patients with clinical failure ([4]; diagnosis bacteremia): 0 (0) n (%) | Patients with clinical cure ([4]; diagnosis others): 4 (57.1) n (%) | Patients with clinical failure ([4]; diagnosis others): 3 (42.9) n (%) | Patients with clinical cure ([4]; diagnosis pneumonia): 7 (50) n (%) | Patients with clinical failure ([4]; diagnosis pneumonia): 7 (50) n (%) | Patients with clinical cure ([4]; diagnosis tracheobronchitis): 11 (78.6) n (%) | Patients with clinical failure ([4]; diagnosis tracheobronchitis): 3 (21.43) n (%) | 30-day all-cause mortality ([5]; patients with clinical failure (n = 16)): 13 (81.3) n (%) | 30-day all-cause mortality ([5]; patients without nephrotoxicity at EOT (n = 39)): 10 (25.64) n (%) | GFR at EOT, median (interquartile range) [6]: 30.1 (6.51–81.4) mL/min/1.73 m^2 | Incidence of WRF at EOT [6]: 33.9% | Recovery of baseline renal function [6]: 10 (52.6) n (%) | WRF (worsened renal function) at the end of treatment [6]: 20 (33.9) n (%) | WRF at EOT, RIFLE class F (Failure) [6]: 3 (15) n (%) | WRF at EOT, RIFLE class I (Injury) [6]: 10 (50) n (%) | WRF at EOT, RIFLE class R (Risk) [6]: 3 (15) n (%) | WRF reversible, patients [6]: 52.6% | Neurotoxicity [7]: none of the patients in this cohort developed neurotoxicity | CMS dose renally excreted in the urine ([2]; during the first 24 h after dosing, ref [21]): about 60% | Urinary excretion of CMS after intravenous administration ([2]; patients, within the first 6 h, ref [22]): rapid urinary excretion | Rates of nephrotoxicity in patients treated with CMS [8]: 20-60% | OR of DOT (days of CMS treatment) as risk factor for colistin-associated nephrotoxicity at the end of treatment ([3]; p = 0.069): 1.11
